{"source": "paper PMC3845967", "about": "(ACS medicinal chemistry letters, 2013)", "key": {"[1]": {"system": "mouse embryonic fibroblasts (MEFs)", "test": "MTT toxicity assay, mouse embryonic fibroblasts", "assay_type": "cell-based", "conditions": "for EC50: Mus musculus, Fibroblast"}, "[2]": {"system": "fibroblasts or normal epithelial cells", "conditions": "cited from earlier work"}, "[3]": {"system": "MDA-MB-231 and MCF7 breast cancer cells", "assay_type": "cell-based", "conditions": "for EC50: 72 h, read-out: EC50 (span over series and cell lines); for effect of substitution on activity compared to MKT-077: either cell line (MDA-MB-231, MCF7)"}, "MCF7 breast cancer cells": {"system": "MCF7 breast cancer cells", "test": "MTT anti-proliferative assay, MCF7 cells", "assay_type": "cell-based"}, "[4]": {"system": "MDA-MB-231 breast cancer cells", "test": "MTT anti-proliferative assay, MDA-MB-231 cells", "assay_type": "cell-based"}, "MDA-MB-231 cells": {"system": "MDA-MB-231 cells", "test": "Cleavage of caspase-3 and PARP", "assay_type": "cell-based", "conditions": "48 h"}, "[5]": {"system": "MDA-MB-231 and MCF7 cells", "test": "p62 oligomerization / autophagic flux", "assay_type": "cell-based", "conditions": "24 h"}, "human Hsc70": {"biological_target": "human Hsc70 (Homo sapiens, UniProt P11142)", "sequence (P11142 whole entry)": "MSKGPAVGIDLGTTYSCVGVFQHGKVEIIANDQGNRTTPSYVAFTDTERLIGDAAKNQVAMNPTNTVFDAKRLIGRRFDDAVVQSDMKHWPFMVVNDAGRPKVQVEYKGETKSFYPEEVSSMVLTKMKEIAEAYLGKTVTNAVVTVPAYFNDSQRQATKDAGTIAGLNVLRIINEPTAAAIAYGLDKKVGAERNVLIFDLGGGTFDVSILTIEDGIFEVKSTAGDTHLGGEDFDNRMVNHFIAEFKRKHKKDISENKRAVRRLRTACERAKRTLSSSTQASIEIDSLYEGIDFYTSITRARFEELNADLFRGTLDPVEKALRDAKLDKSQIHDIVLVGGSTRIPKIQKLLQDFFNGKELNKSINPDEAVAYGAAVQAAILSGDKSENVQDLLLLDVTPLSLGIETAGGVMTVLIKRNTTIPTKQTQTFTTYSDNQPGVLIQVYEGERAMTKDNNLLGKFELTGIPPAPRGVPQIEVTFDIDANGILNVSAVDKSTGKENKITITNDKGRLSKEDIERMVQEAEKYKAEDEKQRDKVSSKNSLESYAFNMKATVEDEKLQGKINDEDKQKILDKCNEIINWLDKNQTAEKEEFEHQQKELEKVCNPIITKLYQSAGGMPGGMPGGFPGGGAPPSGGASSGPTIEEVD", "test": "ELISA binding of biotinylated analogs to immobilized Hsc70"}}}
{"molecule": "CCn1c(=O)/c(=C2\\Sc3ccccc3N2C)s/c1=C\\c1cccc[n+]1CC.[Cl-]", "note": "[MKT-077, reference compound]", "values": [{"measurement": "EC50", "setting": "[1]", "value": "> 50", "unit": "µM"}, {"measurement": "toxicity to fibroblasts or normal epithelial cells", "setting": "[2]", "value": "not toxic"}]}
{"molecule": "CCn1c(=O)/c(=C2\\Sc3ccccc3N2C)s/c1=C\\c1cccc[n+]1C.[Cl-]", "note": "[YM-01, reference compound]", "values": [{"measurement": "EC50", "setting": "[1]", "value": "> 50", "unit": "µM"}, {"measurement": "toxicity to fibroblasts or normal epithelial cells", "setting": "[2]", "value": "not toxic"}]}
{"molecule": "CCn1c(=O)/c(=C2\\Sc3cccc(F)c3N2C)s/c1=C\\c1cccc[n+]1C", "note": "[compound 1]", "values": [{"measurement": "EC50", "setting": "[3]", "value": "2.2 to 18", "unit": "µM"}]}
{"molecule": "CCn1c(=O)/c(=C2\\Sc3ccc(F)cc3N2C)s/c1=C\\c1cccc[n+]1C", "note": "[compound 2]", "values": [{"measurement": "EC50", "setting": "[3]", "value": "2.2 to 18", "unit": "µM"}]}
{"molecule": "CCn1c(=O)/c(=C2\\Sc3cc(F)ccc3N2C)s/c1=C\\c1cccc[n+]1C", "note": "[compound 3]", "values": [{"measurement": "EC50", "setting": "[3]", "value": "2.2 to 18", "unit": "µM"}]}
{"molecule": "CCn1c(=O)/c(=C2\\Sc3c(F)cccc3N2C)s/c1=C\\c1cccc[n+]1C", "note": "[compound 4]", "values": [{"measurement": "EC50", "setting": "[3]", "value": "2.2 to 18", "unit": "µM"}]}
{"molecule": "CCn1c(=O)/c(=C2\\Sc3cccc(F)c3N2C)s/c1=C\\c1cccc[n+]1CC", "note": "[compound 5]", "values": [{"measurement": "EC50", "setting": "[3]", "value": "0.8 to 13", "unit": "µM"}]}
{"molecule": "CCn1c(=O)/c(=C2\\Sc3ccc(F)cc3N2C)s/c1=C\\c1cccc[n+]1CC", "note": "[compound 6]", "values": [{"measurement": "EC50", "setting": "[3]", "value": "0.8 to 13", "unit": "µM"}]}
{"molecule": "CCn1c(=O)/c(=C2\\Sc3cc(F)ccc3N2C)s/c1=C\\c1cccc[n+]1CC", "note": "[compound 7]", "values": [{"measurement": "EC50", "setting": "[3]", "value": "0.8 to 13", "unit": "µM"}]}
{"molecule": "CCn1c(=O)/c(=C2\\Sc3c(F)cccc3N2C)s/c1=C\\c1cccc[n+]1CC", "note": "[compound 8]", "values": [{"measurement": "EC50", "setting": "[3]", "value": "0.8 to 13", "unit": "µM"}]}
{"molecule": "CCn1c(=O)/c(=C2\\Sc3cccc(Cl)c3N2C)s/c1=C\\c1cccc[n+]1C", "note": "[compound 9]", "values": [{"measurement": "EC50", "setting": "[3]", "value": "4.1 to 28", "unit": "µM"}]}
{"molecule": "CCn1c(=O)/c(=C2\\Sc3ccc(Cl)cc3N2C)s/c1=C\\c1cccc[n+]1C", "note": "[compound 10]", "values": [{"measurement": "EC50", "setting": "[3]", "value": "4.1 to 28", "unit": "µM"}]}
{"molecule": "CCn1c(=O)/c(=C2\\Sc3cc(Cl)ccc3N2C)s/c1=C\\c1cccc[n+]1C", "note": "[compound 11]", "values": [{"measurement": "EC50", "setting": "[3]", "value": "4.1 to 28", "unit": "µM"}]}
{"molecule": "CCn1c(=O)/c(=C2\\Sc3c(Cl)cccc3N2C)s/c1=C\\c1cccc[n+]1C", "note": "[compound 12]", "values": [{"measurement": "EC50", "setting": "[3]", "value": "4.1 to 28", "unit": "µM"}]}
{"molecule": "CCn1c(=O)/c(=C2\\Sc3ccc(OC)cc3N2C)s/c1=C\\c1cccc[n+]1C", "note": "[compound 13]", "values": [{"measurement": "EC50", "setting": "[3]", "value": "3 to 30", "unit": "µM"}]}
{"molecule": "CCn1c(=O)/c(=C2\\Sc3cc(OC)ccc3N2C)s/c1=C\\c1cccc[n+]1C", "note": "[compound 14]", "values": [{"measurement": "EC50", "setting": "[3]", "value": "3 to 30", "unit": "µM"}]}
{"molecule": "CCn1c(=O)/c(=C2\\Sc3ccc(C(F)(F)F)cc3N2C)s/c1=C\\c1cccc[n+]1C", "note": "[compound 15]", "values": [{"measurement": "EC50", "setting": "[3]", "value": "3 to 30", "unit": "µM"}]}
{"molecule": "CCn1c(=O)/c(=C2\\Sc3cc(C(F)(F)F)ccc3N2C)s/c1=C\\c1cccc[n+]1C", "note": "[compound 16]", "values": [{"measurement": "EC50", "setting": "[3]", "value": "3 to 30", "unit": "µM"}]}
{"molecule": "C=CCn1c(=O)/c(=C2\\Sc3ccccc3N2C)s/c1=C\\c1cccc[n+]1C.[Cl-]", "note": "[compound 17]", "values": [{"measurement": "effect of substitution on activity compared to MKT-077", "setting": "[3]", "value": "did not substantially affect activity"}]}
{"molecule": "CN1/C(=c2\\s/c(=C\\c3cccc[n+]3C)n(Cc3ccccc3)c2=O)Sc2ccccc21.[Cl-]", "note": "[compound 18]", "values": [{"measurement": "effect of substitution on activity compared to MKT-077", "setting": "[3]", "value": "did not substantially affect activity"}]}
{"molecule": "CCn1c(=O)/c(=C2\\Sc3ccccc3N2C)s/c1=C\\c1cccc[n+]1Cc1ccccc1.[Cl-]", "note": "[compound 20]", "values": [{"measurement": "fold improvement in activity compared to MKT-077", "setting": "[3]; MDA-MB-231 and MCF7 cells", "value": "approximately 2 fold"}]}
{"molecule": "CCn1c(=O)/c(=C2\\Sc3ccccc3N2C)s/c1=C\\c1nccc[n+]1C.[Cl-]", "note": "[compound 23]", "values": [{"measurement": "fold reduction in potency", "setting": "[3]; compared to MKT-077", "value": "approximately 2 fold"}]}
{"molecule": "CCn1c(=O)/c(=C2\\Sc3ccccc3N2C)s/c1=C\\c1scc[n+]1C.[Cl-]", "note": "[compound 24]", "values": [{"measurement": "fold improvement in potency compared to MKT-077", "setting": "MCF7 breast cancer cells", "value": 3, "unit": "fold"}]}
{"molecule": "CCn1c(=O)/c(=C2\\Sc3ccccc3N2C)s/c1=C\\c1scc[n+]1Cc1ccccc1.[Cl-]", "note": "[compound 26]", "values": [{"measurement": "fold improvement in potency compared to MKT-077", "setting": "[4]", "value": 2, "unit": "fold"}, {"measurement": "fold improvement in potency compared to MKT-077", "setting": "MCF7 breast cancer cells", "value": 4, "unit": "fold"}]}
{"molecule": "CCn1c(=O)/c(=C2\\Sc3cccc(F)c3N2C)s/c1=C\\c1scc[n+]1Cc1ccccc1.[Cl-]", "note": "[compound 27]", "values": [{"measurement": "fold improvement in potency compared to MKT-077", "setting": "[4]", "value": "more than 3 fold"}, {"measurement": "fold improvement in potency compared to MKT-077", "setting": "MCF7 breast cancer cells", "value": 2, "unit": "fold"}, {"measurement": "activity against MEFs compared to MKT-077", "setting": "[1]", "value": "increased activity against MEFs"}]}
{"molecule": "CCn1c(=O)/c(=C2\\Sc3cc(Cl)ccc3N2C)s/c1=C\\c1scc[n+]1Cc1ccccc1.[Cl-]", "note": "[compound 30]", "values": [{"measurement": "activity against MEFs compared to MKT-077", "setting": "[1]", "value": "increased activity against MEFs"}, {"measurement": "cleavage of caspase-3 and PARP", "setting": "MDA-MB-231 cells", "value": "activated"}, {"measurement": "autophagic flux (p62 oligomerization, p62 monomer)", "setting": "[5]", "value": "strongly affected autophagic flux"}]}
{"molecule": "CCn1c(=O)/c(=C2\\Sc3cccc(F)c3N2C)s/c1=C\\c1scc[n+]1Cc1ccc(CNC(=O)CCCC[C@@H]2SC[C@@H]3NC(=O)N[C@@H]32)cc1", "note": "[compound 32]", "values": [{"measurement": "Kd", "setting": "human Hsc70", "value": "2.4 ± 0.4", "unit": "µM"}]}
{"molecule": "CCn1c(=O)/c(=C2\\Sc3cccc(F)c3N2C)s/c1=C\\c1cccc[n+]1CCCCCCNC(=O)CCCC[C@@H]1SC[C@@H]2NC(=O)N[C@@H]21", "note": "[compound 34]", "values": [{"measurement": "Kd", "setting": "human Hsc70", "value": "10.9 ± 4.4", "unit": "µM"}]}
{"molecule": "CCn1c(=O)/c(=C2\\Sc3cccc(Cl)c3N2C)s/c1=C\\c1cccc[n+]1CCCCCCNC(=O)CCCC[C@@H]1SC[C@@H]2NC(=O)N[C@@H]21", "note": "[compound 38]", "values": [{"measurement": "Kd", "setting": "human Hsc70", "value": "7.7 ± 1", "unit": "µM"}]}
